Results published in patent US20230357310A1, “Saponin derivatives with improved therapeutic window” (priority 2019, published 2023).
pIC50: −log10 of the molar value. Where two headings read alike, the source gives them in different places.

Assays:
[1] = tested on: HeLa (EGFR+) cells; conditions: saponin as single compound
Method: To extend this test, saponins from other sources were analyzed. A saponin purified from a root extract of Gypsophila elegans M. Bieb. […] FIG. 63C).

[2] = tested on: A431 (EGFR++) cells; experiment: Cell viability, saponin derivative with or without […] EGFdianthin; conditions: A431, saponin as single compound
[3] = tested on: EGFR expressing cells (HeLa); experiment: cells; conditions: for endosomal escape enhancing activity (enhancement of cytotoxicity of ADC / effector molecules): summary statement in the description; for pIC50: Homo sapiens, HeLa, read-out: IC50 endosomal escape enhancing activity, in HeLa or A431, + 5 pM EGF-dianthin, summary range
[4] = Critical micellar concentration (ANS fluorescence); type: physicochemical; conditions: for CMC compared with native (underivatised) saponin: comparison in words
Method: The critical micellar concentration (CMC) of saponins derived from Saponaria officinalis (SO) (Table A7) and derived from Quillaja saponaria (QS) (Table A8, and Table A9) was determined by the method of DeVendittis et al. (A fluorimetric method for the estimation of the critical micelle concentration of surfactants, Analytical Biochemistry, Volume 115, Issue 2, August 1981, Pages 278-286) as follows:
The emission spectrum of 8-Anilinonaphthalene-1-sulfonic acid (ANS) in either purified water (MQ) or PBS (Dulbecco's PBS+/+) was determined at dry weight concentrations of saponins ranging from 1 to 1400 μM to cover the range below and above the CMC. Above the CMC, the fluorescence yield of ANS increases and the wavelength of maximum emission decreases due to portioning of the fluorescent dye into micelles. Fluorescence yields were recorded on a Fluoroskan Ascent FL (Thermo Scientific) at an excitation wavelength of 355 nm, and an emission wavelength of 460 nm. 6 μg at a concentration of 75.86 μM of ANS were used per sample and measurement.

[5] = tested on: A2058 (EGFR−) cells; experiment: Cell viability, saponin derivative with or without […] EGFdianthin; conditions: A2058, saponin as single compound
[6] = tested on: HeLa cells; experiment: Pilot cell viability bioassay, saponin + 1.5 pM dianthin-EGF, 72 h; type: cell-based; conditions: 10 microgram/ml saponin + […] dianthin-EGF
Method: HeLa cells were incubated for 72 h with the following constructs and cell viability before and after the 72 h-incubation was assessed. In the experiments, cells were exposed to 1.5 pM dianthin-EGF conjugate. A negative control were cells incubated with buffer vehicle and 10 microgram/ml saponin, without dianthin-EGF. Cell viability was set to 100% for the control in which both saponin and EGF-dianthin were omitted. […] Cell viability after 72 h was essentially 0%. For the chemically modified saponin variants, 10 microgram/ml saponin was tested in combination with 1.5 pM dianthin-EGF.

[7] = tested on: EGFR expressing cells (A431); experiment: Cell viability assay (MTS): saponin titrated on fixed 10 pM targeted toxin; type: cell-based; conditions: without targeted toxin
[8] = tested on: human red blood cells; experiment: cells; conditions: for IC50: read-out: IC50 nM (hemolysis); for hemolytic activity compared with unmodified saponin: comparison in words
Method: Red blood cells (RBCs) were isolated from a buffy coat using a Ficoll gradient. The obtained RBC pellet (˜4-5 ml) was washed 2× with 50 ml DPBS (without Ca^2+/Mg^2+, PAN-Biotech GmbH). Cells were pelleted by centrifugation for 10 min, 800×g at RT. RBC were counted and resuspended at 500.000.000 c/ml in DPBS (without Ca^2+/Mg^2+), based on total cell count.
Saponin dilutions were prepared in DPBS (with Ca^2+/Mg^2+, PAN-Biotech GmbH), at 1.11×final strength. For positive lysis control a 0.02% Triton-X100 solution was prepared in DPBS^+/+. Of all compound solutions 135 μl was dispensed/well in a 96 well V-bottom plate. To this 15 μl RBC suspension was added and mixed shortly (10 sec-600 rpm). The plate was incubated 30 min at RT, with gentle agitation. Afterwards the plate was spun for 10 min at 800×g to pellet the RBC and 100-120 μl supernatant was transferred to a standard 96 wp (96 well-plate).

[9] = tested on: HeLa cells; experiment: cells; conditions: for cytotoxicity compared with unmodified saponin: comparison in words
[10] = tested on: HSP27 mRNA in A431 cells; experiment: HSP27 mRNA gene silencing analysis; type: cell-based; conditions: A431, without oligonucleotide
Text: (§1) RNA from cells was isolated and analysed according to standard protocols (Biorad). qPCR primers that were used are indicated in Table A10.

[11] = tested on: HSP27 mRNA in SK-BR-3 cells; experiment: HSP27 mRNA gene silencing analysis; type: cell-based; conditions: with and without SO1861-Ald-EMCH, SK-BR-3 (FIG. 58)
Text: as §1

CC(=O)OC1C(C)OC(OC2C(C)OC(OC(=O)C34CCC(C)(C)CC3C3=CCC5C6(C)CCC(OC7OC(C(=O)O)C(O)C(OC8OCC(O)C(O)C8O)C7OC7OC(CO)C(O)C(O)C7O)C(C)(C=NNC(=O)CCOCCOCCOCCOCCN=[N+]=[N-])C6CCC5(C)C3(C)CC4O)C(OC3OC(C)C(OC4OCC(O)C(OC5OC(CO)C(O)C(O)C5O)C4O)C(O)C3O)C2O)C(O)C1OC1OCC(O)C(O)C1O (stereo not shown)
general toxicity in absence of EGFdianthin [1]: above 10.000 nM | general toxicity in absence of EGFdianthin [2]: above 10.000 nM

CC(=O)OC1C(C)OC(OC2C(C)OC(OC(=O)[C@]34CCC(C)(C)CC3C3=CCC5[C@@]6(C)CC[C@H](OC7OC(C(=O)O)C(O)C(OC8OCC(O)C(O)C8O)C7OC7OC(CO)C(O)C(O)C7O)[C@@](C)(C=O)C6CC[C@@]5(C)[C@]3(C)C[C@H]4O)C(OC3OC(C)C(OC4OCC(O)C(OC5OCC(O)C(O)C5O)C4O)C(O)C3O)C2O)C(O)C1OC(C)=O (stereo partly shown) [GE1741, reference compound]
general toxicity in absence of EGFdianthin [1]: 5.000 nM

CC(=O)OC1C(C)OC(OC2C(C)OC(OC(=O)[C@]34CCC(C)(C)CC3C3=CCC5[C@@]6(C)CC[C@H](OC7OC(C(=O)O)C(O)C(OC8OCC(O)C(O)C8O)C7OC7OC(CO)C(O)C(O)C7O)[C@@](C)(CO)C6CC[C@@]5(C)[C@]3(C)C[C@H]4O)C(OC3OC(C)C(OC4OCC(O)C(OC5OC(CO)C(O)C(O)C5O)C4O)C(O)C3O)C2O)C(O)C1OC1OCC(O)C(O)C1O (stereo partly shown) [Molecule 6]
endosomal escape enhancing activity (enhancement of cytotoxicity of ADC / effector molecules) [3]: have the capacity to enhance the cytotoxic effect | CMC compared with native (underivatised) saponin [4]: increased CMC

CC1OC(OC2C(C)OC(OC(=O)[C@]34CCC(C)(C)CC3C3=CCC5[C@@]6(C)CC[C@H](OC7OC(C(=O)O)C(O)C(OC8OCC(O)C(O)C8O)C7OC7OC(CO)C(O)C(O)C7O)[C@@](C)(C=O)C6CC[C@@]5(C)[C@]3(C)C[C@H]4O)C(OC3OC(C)C(OC4OCC(O)C(OC5OC(CO)C(O)C(O)C5O)C4O)C(O)C3O)C2O)C(O)C(OC2OCC(O)C(O)C2O)C1O (stereo partly shown) [Molecule 8]
endosomal escape enhancing activity (enhancement of cytotoxicity of ADC / effector molecules) [3]: display activity | CMC compared with native (underivatised) saponin [4]: increased CMC

CC1OC(OC2C(C)OC(OC(=O)[C@]34CCC(C)(C)CC3C3=CCC5[C@@]6(C)CC[C@H](OC7OC(C(=O)O)C(O)C(OC8OCC(O)C(O)C8O)C7OC7OC(CO)C(O)C(O)C7O)[C@@](C)(CO)C6CC[C@@]5(C)[C@]3(C)C[C@H]4O)C(OC3OC(C)C(OC4OCC(O)C(OC5OC(CO)C(O)C(O)C5O)C4O)C(O)C3O)C2O)C(O)C(OC2OCC(O)C(O)C2O)C1O (stereo partly shown) [Molecule 10]
endosomal escape enhancing activity (enhancement of cytotoxicity of ADC / effector molecules) [3]: have the capacity to enhance the cytotoxic effect | CMC compared with native (underivatised) saponin [4]: increased CMC

CC1OC(OC2C(C)OC(OC(=O)C34CCC(C)(C)CC3C3=CCC5C6(C)CCC(OC7OC(C(=O)O)C(O)C(OC8OCC(O)C(O)C8O)C7OC7OC(CO)C(O)C(O)C7O)C(C)(C=NNC(=O)CCCCCN7C(=O)C=CC7=O)C6CCC5(C)C3(C)CC4O)C(OC3OC(C)C(OC4OCC(O)C(OC5OC(CO)C(O)C(O)C5O)C4O)C(O)C3O)C2O)C(O)C(OC2OCC(O)C(O)C2O)C1O (stereo not shown) [Molecule 15]
endosomal escape enhancing activity (enhancement of cytotoxicity of ADC / effector molecules) [3]: have the capacity to enhance the cytotoxic effect | CMC compared with native (underivatised) saponin [4]: increased CMC

CC(=O)OC1C(C)OC(OC2C(C)OC(OC(=O)[C@]34CCC(C)(C)CC3C3=CCC5[C@@]6(C)CC[C@H](OC7OC(C(=O)NCCN8C(=O)C=CC8=O)C(O)C(OC8OCC(O)C(O)C8O)C7OC7OC(CO)C(O)C(O)C7O)[C@@](C)(CO)C6CC[C@@]5(C)[C@]3(C)C[C@H]4O)C(OC3OC(C)C(OC4OCC(O)C(OC5OC(CO)C(O)C(O)C5O)C4O)C(O)C3O)C2O)C(O)C1OC1OCC(O)C(O)C1O (stereo partly shown) [Molecule 20]
endosomal escape enhancing activity (enhancement of cytotoxicity of ADC / effector molecules) [3]: have the capacity to enhance the cytotoxic effect

CC(=O)OC1C(C)OC(OC2C(C)OC(OC(=O)[C@]34CCC(C)(C)CC3C3=CCC5[C@@]6(C)CC[C@H](OC7OC(C(=O)O)C(O)C(OC8OCC(O)C(O)C8O)C7OC7OC(CO)C(O)C(O)C7O)[C@@](C)(C=O)C6CC[C@@]5(C)[C@]3(C)C[C@H]4O)C(OC3OC(C)C(OC4OCC(O)C(OC5OC(CO)C(O)C(O)C5O)C4O)C(O)C3O)C2O)C(O)C1OC1OCC(O)C(O)C1O (stereo partly shown) [SO1861, reference compound]
general toxicity in absence of EGFdianthin [1]: strong cell viability reduction | general toxicity in absence of EGFdianthin [5]: strong cell viability reduction | Cell viability after 72 h [6]: ~0% | general toxicity in absence of EGFdianthin [2]: strong cell viability reduction | cell killing activity of saponin alone [7]: no cell killing activity | CMC ([4]; PBS (Tables A7, A9)): 185 µM

CC(=O)OC1C(C)OC(OC2C(C)OC(OC(=O)[C@]34CCC(C)(C)CC3C3=CCC5[C@@]6(C)CC[C@H](OC7OC(C(=O)O)C(O)C(OC8OCC(O)C(O)C8O)C7OC7OC(CO)C(O)C(O)C7O)[C@@](C)(/C=N/NC(=O)CCCCCN7C(=O)C[C@H](SCCO)C7=O)C6CC[C@@]5(C)[C@]3(C)C[C@H]4O)C(OC3OC(C)C(OC4OCC(O)C(OC5OC(CO)C(O)C(O)C5O)C4O)C(O)C3O)C2O)C(O)C1OC1OCC(O)C(O)C1O (stereo partly shown) [SO1861-Ald-EMCH-blocked]
pIC50 [3]: 5.70 to 6.22 | CMC ([4]; SO saponins, determined in PBS, Table A7): 50 ± 5 µM | CMC compared with native (underivatised) saponin [4]: lower CMC values | IC50 ([8]; Homo sapiens, Erythrocyte): 300000 nM | pIC50 ([8]; Homo sapiens, Erythrocyte, read-out: IC50 hemolytic activity): 3.52 | hemolytic activity compared with unmodified saponin [8]: less hemolytically active | IC50 ([8]; red blood cells, Table A6): 300000 nM | IC50 ([9]; Homo sapiens, HeLa, read-out: IC50 nM (Toxicity)): > 100000 nM | pIC50 ([9]; Homo sapiens, HeLa, read-out: IC50 toxicity): < 4.00 | cytotoxicity compared with unmodified saponin [9]: less cytotoxic

CC(=O)OC1C(C)OC(OC2C(C)OC(OC(=O)[C@]34CCC(C)(C)CC3C3=CCC5[C@@]6(C)CC[C@H](OC7OC(C(=O)O)C(O)C(OC8OCC(O)C(O)C8O)C7OC7OC(CO)C(O)C(O)C7O)[C@@](C)(/C=N/NC(=O)CCCCCN7C(=O)C=CC7=O)C6CC[C@@]5(C)[C@]3(C)C[C@H]4O)C(OC3OC(C)C(OC4OCC(O)C(OC5OC(CO)C(O)C(O)C5O)C4O)C(O)C3O)C2O)C(O)C1OC1OCC(O)C(O)C1O (stereo partly shown) [SO1861-Ald-EMCH]
general toxicity in absence of EGFdianthin [1]: > 25.000 nM | general toxicity in absence of EGFdianthin [5]: > 25.000 nM | Cell viability after 72 h [6]: reduced cell viability | general toxicity in absence of EGFdianthin [2]: > 25.000 nM | cell killing activity of saponin alone [7]: no cell killing activity | pIC50 [3]: 5.70 to 6.22 | CMC ([4]; PBS (Tables A7, A9)): > 800 µM | CMC compared with native (underivatised) saponin [4]: higher CMC values | hemolytic activity compared with unmodified saponin [8]: less hemolytically active | cytotoxicity compared with unmodified saponin [9]: less cytotoxic | HSP27 gene silencing activity of saponin derivative alone [10]: no HSP27 gene silencing activity

HSP27LNA: HSP27 LNA oligo 5′-ggcacagccagtggcg-3′ (GGCACAGCCAGTGGCG; LNA-modified, pattern not given here)
endosomal escape/gene silencing enhancement factor compared with HSP27BNA [11]: comparable
